Laboratory results published in patent US8536332B2, “Modulating signal transduction pathways with substituted pyridol [2,3-b] pyrazines” (Aeterna Zentaris GmbH, priority 2007, dated 2013).

Legend:
Erk2 = target: T1, Erk2 (Mus musculus, UniProt P63085); assay: Cell-free kinase assay Erk2-ALPHA; type: biochemical, human; conditions: 10 μM ATP
T1 construct: purchased Upstate #14-173
Description: (§1) The inhibitory effect of the compounds of the invention was tested on various human serine/threonine kinases, tyrosine kinases and lipid kinases in enzymatic assays. Recombinant human kinases, for example PI3Kalpha, -beta, -gamma, -delta, Erk2, p38alpha, p38gamma, Jnk1, Jnk2 and others were used, in some cases as full-length kinases, in some cases as truncated fragments—but at least consisting of the functional kinase domains. The commercial kinase proteins (Proqinase, Upstate) were used as recombinant fusion proteins with GST (glutathione S-transferase) tag or His tag. Depending on the substrate type, the different kinase reactions were quantified by suitable ALPHA™ beads (PerkinElmer).
(§2) The kinase assays for PI3K and Erk are described in detail and selected test results are cited below. […] Subsequently, the kinase reaction was stopped by adding the ALPHA bead mix (10 μg/ml, #6760603/PerkinElmer), preincubated with 1 nM GST:Grp1 fusion protein (Upstate) and […] (#C-39B6/Echelon) in 50 mM Hepes, 50 mM NaCl, 50 mM EDTA and 0.1% BSA, and left to stand overnight. • b) Erk2-ALPHA: The test substance, 0.625 ng of Erk2 (#14-173, Upstate), 10 μM ATP and 15 nM biotinylated MBP (myelin basic protein) substrate were incubated on a 384-well Optiplate (Perkin Elmer) in a volume of 15 μl for 1 h in 25 mM Tris, 10 mM MgCl2, 0.1% Tween-20, 100 μM NaVO4, 2 mM DTT at pH 7.5. The kinase reaction was stopped by adding 10 μl of the ALPHA bead mix (10 μg/ml, #6760617/PerkinElmer), pre-incubated with anti-phospho MBP antibody (320 pM, #05-429/Upstate), in 25 mM Tris, 200 mM NaCl, 100 mM EDTA and 0.3% BSA, and left to stand overnight.
(§3) The luminiscence was detected the next morning in a Fusion™ alpha instrument (Perkin Elmer).
(§4) The calculation of % inhibition values per substance concentration was done by means of the following formula from the raw data determined in the Fusion™ alpha:
(§5) The controls were determined 8 fold and the substance samples 2 fold. 0% control contained neither any ATP nor any substrate. The 100% control contained no test substance. The IC50 values were determined with GraphPadPrism.

Jnk1 + Jnk2 = test system: T2, Jnk1 + Jnk2; assay: Cell-free kinase assay (ALPHA technology) Jnk1 + Jnk2; type: biochemical, human; conditions: 10 μM ATP
T2 construct: fused on or other part: GST tag or His tag (commercial recombinant fusion proteins from Proqinase or Upstate)
Description: as §1, §2, §3, §4, §5

p38alpha = p38alpha (Homo sapiens, UniProt Q16539); assay: Cell-free kinase assay (ALPHA technology) p38alpha; type: biochemical; conditions: 10 μM ATP
Description: as §1, §2, §3, §4, §5

MDA-MB468 = assay: XTT assay, anti-proliferative activity, MDA-MB468; type: cell-based; conditions: Homo sapiens, MDA-MB-468; 45 h incubation
Description: (§6) The principle of this test is based on the intracellular reduction of the tetrazolium dye XTT (sodium 3′-[1-(phenylaminocarbonyl)-3,4-tetrazolium]bis(4-methoxy-6-nitro)benzenesulphonic acid, Sigma) to a formazan dye by mitochondrial dehydrogenases. The dye is formed only by metabolically active cells. Its photometrically measurable intensity is a quantitative indicator for the presence of living cells. The reduction in the dye formation as a result of incubation of the cells with substances serves as a parameter for the anti-proliferative activity.
(§7) The tumour cell lines (ATCC) were seeded in 96-well microtitre plates in a defined cell count (5000 cells/well for Hct116; 10000 cells/well for MDA MB468), and incubated overnight at 37° C., 5% CO2 and 95% air humidity. The test substances were made up as stock solutions (10 mM) in DMSO. […] The cell plates were then incubated for 45 h at 37° C., 5% CO2 and 95% air humidity.
(§8) For the detection reaction, the XTT substrate was mixed with PMS (N-methyldibenzopyrazine methylsulphate, Sigma) and added to the cells, to result in a final concentration of 325 μg of XTT/ml and 2.5 μg PMS/ml. The mixture was then incubated for 3 h at 37° C., 95% air humidity. Subsequently the formazan salt formed by cellular dehydrogenases was quantified at an absorption of 490 nm.
(§9) The evaluation of the % inhibition values was done by means of the following formula from the values for the optical densities measured in each case at 490 nm:
(§10) The controls were determined 8 fold, the substance samples 2 fold. 0% control contained no cells and the 100% control contained no test substance. The EC50 values were determined with GraphPadPrism.

Hct116 = assay: XTT assay, anti-proliferative activity, Hct116; type: cell-based; conditions: Homo sapiens, HCT-116; 45 h incubation
Description: as §6, §7, §8, §9, §10

T1 sequence (P63085 whole entry): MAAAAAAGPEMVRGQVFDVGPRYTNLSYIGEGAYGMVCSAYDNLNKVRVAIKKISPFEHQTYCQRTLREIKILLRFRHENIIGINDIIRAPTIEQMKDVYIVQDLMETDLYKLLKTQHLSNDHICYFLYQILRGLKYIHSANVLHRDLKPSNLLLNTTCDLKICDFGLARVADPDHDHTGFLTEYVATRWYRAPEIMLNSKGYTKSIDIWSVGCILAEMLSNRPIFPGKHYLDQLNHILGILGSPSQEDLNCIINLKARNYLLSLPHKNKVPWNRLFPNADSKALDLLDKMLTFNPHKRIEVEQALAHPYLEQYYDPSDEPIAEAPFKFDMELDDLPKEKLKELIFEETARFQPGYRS
Chain of p38alpha (Q16539 whole entry): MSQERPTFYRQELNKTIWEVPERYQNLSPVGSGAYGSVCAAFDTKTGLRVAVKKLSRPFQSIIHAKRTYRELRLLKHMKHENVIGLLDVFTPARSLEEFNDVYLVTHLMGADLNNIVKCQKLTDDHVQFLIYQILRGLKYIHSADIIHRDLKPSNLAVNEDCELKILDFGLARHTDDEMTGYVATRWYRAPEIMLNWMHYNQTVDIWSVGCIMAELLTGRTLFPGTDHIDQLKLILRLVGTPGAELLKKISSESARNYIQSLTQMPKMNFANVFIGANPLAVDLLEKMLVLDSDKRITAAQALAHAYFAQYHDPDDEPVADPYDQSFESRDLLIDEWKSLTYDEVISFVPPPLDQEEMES

| melting point [°C] | IC50 (Erk2) [µM] | IC50 (Jnk1 + Jnk2) [µM] | IC50 (p38alpha) [µM] | EC50 (MDA-MB468) [µM] | EC50 (Hct116) [µM] | SMILES |
| --- | --- | --- | --- | --- | --- | --- |
| 222 to 225 | > 100 | > 100 | > 100 |  |  | COc1cc(-c2ccc3ncc(NC(=O)NC4CCCC4)nc3n2)ccc1O [Compound 20, 1-Cyclopentyl-3-[6-(4-hydroxy-3-methoxy-phenyl)-pyrido[2,3-b]pyrazin-3-yl]-urea] |
| 251 to 253 | > 100 | < 100 | > 100 | < 5 | < 5 | CC(C)(C)NC(=O)Nc1cnc2ccc(-c3cc(Cl)c(O)c(Cl)c3)nc2n1 [Compound 553, 1-tert-Butyl-3-[6-(3,5-dichloro-4-hydroxy-phenyl)-pyrido[2,3-b]pyrazin-3-yl]-urea] |
| 262 to 264 | > 100 |  |  | < 1 | < 1 | O=C(Nc1cnc2ccc(-c3cc(Cl)c(O)c(Cl)c3)nc2n1)NC1CCCC1 [Compound 563, 1-Cyclopentyl-3-[6-(3,5-dichloro-4-hydroxy-phenyl)-pyrido[2,3-b]pyrazin-3-yl]-urea] |
| > 270 | > 100 | > 100 | > 100 | < 10 | < 10 | CCNC(=O)Nc1cnc2ccc(-c3ccc(O)c(Cl)c3)nc2n1 [Compound 637, 1-[6-(3-Chloro-4-hydroxy-phenyl)-pyrido[2,3-b]pyrazin-3-yl]-3-ethyl-urea] |

Continued, molecule first:

| SMILES | melting point [°C] | IC50 (Erk2) [µM] | IC50 (Jnk1 + Jnk2) [µM] | IC50 (p38alpha) [µM] | EC50 (MDA-MB468) [µM] | EC50 (Hct116) [µM] |
| --- | --- | --- | --- | --- | --- | --- |
| COc1cc(-c2ccc3ncc(NC(=O)NC4CCN(C(=O)C(F)(F)F)CC4)nc3n2)ccc1O [Compound 30, 1-[6-(4-Hydroxy-3-methoxy-phenyl)-pyrido[2,3-b]pyrazin-3-yl]-3-[1-(2,2,2-trifluoro-acetyl)-piperidin-4-yl]-urea] | 236 to 239 | < 10 | < 31.6 | < 10 |  |  |
| CCNC(=S)Nc1ccc2ncc(Nc3ccc(OC)c(O)c3)nc2n1 [Compound 147, 1-Ethyl-3-[3-(3-hydroxy-4-methoxy-phenylamino)-pyrido[2,3-b]pyrazin-6-yl]-thiourea] | 272 | > 100 | > 31.6 | > 100 | < 5 | < 5 |
| CCNC(=S)Nc1ccc2ncc(Nc3cc(OC)c(OC)c(OC)c3)nc2n1 [Compound 160, 1-Ethyl-3-[3-(3,4,5-trimethoxy-phenylamino)-pyrido[2,3-b]pyrazin-6-yl]-thiourea] | 268 | < 31.6 | > 100 | < 50 | < 1 | < 1 |
| COc1cc(-c2ccc3ncc(NC(=O)NCCCl)nc3n2)ccc1O [Compound 173, 1-(2-Chloro-ethyl)-3-[6-(4-hydroxy-3-methoxy-phenyl)-pyrido[2,3-b]pyrazin-3-yl]-urea] | 215 to 218 | < 50 | < 31.6 | < 50 | < 1 | < 1 |
| COc1cc(-c2ccc3ncc(NC(=O)Nc4ccncc4)nc3n2)ccc1O [Compound 176, 1-[6-(4-Hydroxy-3-methoxy-phenyl)-pyrido[2,3-b]pyrazin-3-yl]-3-pyridin-4-yl-urea] | 234 to 237 | > 31.6 | < 50 | < 50 | < 1 | < 1 |
| CCNC(=O)Nc1cnc2ccc(-c3cc(C)c(O)c(C)c3)nc2n1 [Compound 181, 1-Ethyl-3-[6-(4-hydroxy-3,5-dimethyl-phenyl)-pyrido[2,3-b]pyrazin-3-yl]-urea] | > 240 | > 100 | > 100 | < 50 | < 10 | < 10 |
| COc1cc(Nc2cnc3ccc(NC(=S)NC4CCCC4)nc3n2)cc(OC)c1OC [Compound 509, 1-Cyclopentyl-3-[3-(3,4,5-trimethoxy-phenylamino)-pyrido[2,3-b]pyrazin-6-yl]-thiourea] | 246 | > 100 | > 100 | > 100 | < 5 | < 5 |
| CNC(=S)Nc1cnc2ccc(-c3ccc(O)c(OC)c3)nc2n1 [Compound 526, 1-[6-(4-Hydroxy-3-methoxy-phenyl)-pyrido[2,3-b]pyrazin-3-yl]-3-methyl-thiourea] | 279 to 280 | > 100 | > 100 | < 50 | < 1 | < 5 |
| CNC(=O)Nc1cnc2ccc(-c3ccc(OC)c(OC)c3)nc2n1 [Compound 566, 1-[6-(3,4-Dimethoxy-phenyl)-pyrido[2,3-b]pyrazin-3-yl]-3-methyl-urea] | 253 to 255 | > 100 | > 100 | > 31.6 | < 5 | < 5 |
| COc1cc(-c2ccc3ncc(NC(=O)Nc4cccs4)nc3n2)ccc1O [Compound 614, 1-[6-(4-Hydroxy-3-methoxy-phenyl)-pyrido[2,3-b]pyrazin-3-yl]-3-thiophen-2-yl-urea] | 216 to 219 | < 31.6 | < 31.6 | < 10 | < 5 | < 5 |
